Experimental data as given in ChEMBL document CHEMBL1149471, “Pharmacophore-based virtual screening: the discovery of novel methionyl-tRNA synthetase inhibitors” (Bioorg Med Chem Lett, 2006).

Molecular target: Methionine--tRNA ligase (Escherichia coli K-12, UniProt P00959)
Assay: Inhibition of Escherichia coli MetRS assessed as decrease in [35S]methionyl tRNAMet production by SPA

Methionine--tRNA ligase, sequence (P00959 whole entry): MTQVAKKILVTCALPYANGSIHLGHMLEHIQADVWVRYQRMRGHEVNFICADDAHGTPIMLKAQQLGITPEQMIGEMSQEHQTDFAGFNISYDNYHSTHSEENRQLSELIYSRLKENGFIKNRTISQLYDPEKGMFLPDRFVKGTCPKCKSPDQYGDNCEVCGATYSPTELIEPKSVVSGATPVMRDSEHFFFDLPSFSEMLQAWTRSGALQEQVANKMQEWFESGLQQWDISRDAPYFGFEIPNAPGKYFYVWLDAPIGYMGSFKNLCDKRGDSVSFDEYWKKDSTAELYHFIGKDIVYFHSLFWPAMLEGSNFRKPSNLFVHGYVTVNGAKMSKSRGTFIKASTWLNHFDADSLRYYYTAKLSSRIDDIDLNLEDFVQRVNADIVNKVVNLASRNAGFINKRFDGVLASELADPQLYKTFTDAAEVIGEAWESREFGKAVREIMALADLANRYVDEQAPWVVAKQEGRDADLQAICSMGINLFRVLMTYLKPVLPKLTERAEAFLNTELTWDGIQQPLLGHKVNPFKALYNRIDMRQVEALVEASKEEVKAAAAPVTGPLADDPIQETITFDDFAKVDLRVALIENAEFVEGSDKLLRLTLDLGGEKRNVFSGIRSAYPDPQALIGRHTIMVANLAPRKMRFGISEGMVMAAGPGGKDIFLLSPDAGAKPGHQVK

**Q.** With `O=C(CC(=O)Nc1ccccc1C(=O)O)Nc1nc2ccc(Br)cc2s1` as the compound, how does the IC50 read?
**A.** 30.5 µM

**Q.** Which IC50 does the source give for `O=C(CNC(=O)c1cccs1)N/N=C/c1ccc(C(=O)O)cc1` here?
**A.** 0.237 µM

**Q.** With `NS(=O)(=O)c1ccc(CCNC(=S)Nc2cccc(C(F)(F)F)c2)cc1` as the compound, how does the IC50 read?
**A.** 47.7 µM

**Q.** For `O=C(CNC(=O)c1cccc(Br)c1)N/N=C/c1ccc(C(=O)O)cc1`, which IC50 is on record?
**A.** 22.8 µM
